Laboratory results from patent US8815912B2, “Wound and mucosa antiseptic based on bispyridiniumalkanes” (L'Air Liquide Société Anonyme pour l'Etude et …, priority 2009, dated 2014).

Assay: Stability of solutions rendered isotonic (290 mOsmol/kg)
Type: physicochemical
Conditions: 0.10% octenidine, dihydrochloride
Description: To investigate the stability, aqueous solutions containing 0.1% by weight of octenidine were in each case rendered isotonic (290 mOsmol/kg).

SMILES: CCCCCCCCN=c1ccn(CCCCCCCCCCn2ccc(=NCCCCCCCC)cc2)cc1.Cl.Cl [Octenidine, Octenidine dihydrochloride]
- Stability (isotonicity adjusted with 0.85% sodium chloride, listed as octenidine): not stable
- Stability (isotonicity adjusted with 2.4% glycerol (99.8% strength)): Stable between +4 °C and +40 °C
- Stability (isotonicity adjusted with 2.4% glycerol (99.8% strength), listed as octenidine): stable
- Stability (isotonicity adjusted with 99.9% Ringer's solution, listed as octenidine): not stable
